According to patent publication US20250042889A1, “3CLPRO PROTEASE INHIBITOR” (SHANGHAI QILU PHARMACEUTICAL RESEARCH AND DEVELOPMENT …, priority 2021, published 2025):

Biological target: SARS-COV-2 3CLpro/Mpro protease (Severe acute respiratory syndrome coronavirus 2 (2019-nCoV) (SARS-CoV-2), UniProt P0DTD1)
Assay: Inhibitory effect on SARS-COV-2 3CLpro/Mpro protease by fluorescence resonance energy transfer
Assay type: biochemical
Conditions: activity intervals A-D, read-out: IC50 (nM), Inhibition on SARS-CoV-2 3CLpro/Mpro protease

Structure (SMILES) | IC50
CNc1cncc(C(=O)N2C[C@H](Nc3c(C(=O)N4C[C@@H](C)O[C@@H](C)C4)cc(Br)cc3[N+](=O)[O-])C[C@H]2C(=O)NC2CCN(CCOC)CC2(F)F)c1 (single isomer, unassigned) [Compound 453-P1] | 50 to 100 nM
O=C(c1cc(Br)cc([N+](=O)[O-])c1N[C@@H]1CCCN(C(=O)C2CNCC(F)(F)C2)C1)N1CCOC(F)(F)C1 (stereo in doubt) [Example 327] | 10 to 50 nM
O=C(c1cc(Br)cc([N+](=O)[O-])c1N[C@@H]1CCCN(C(=O)C2CNCC(F)(F)C2)C1)N1CCCC(F)(F)C1 (stereo in doubt) [Example 331] | 10 to 50 nM
CNc1cncc(C(=O)N2C[C@H](Nc3c(C(=O)N4C[C@@H](C)O[C@@H](C)C4)cc(Br)cc3[N+](=O)[O-])CC2C#N)c1 (stereo in doubt) [Example 362] | 50 to 100 nM
O=C(N[C@H]1CCCC[C@H]1Nc1c(C(=O)N2CC(F)(F)C2)cc(Br)cc1[N+](=O)[O-])c1cncc2ccccc12 [Example 1, N-((1S,2R)-2-((4-bromo-2-(3,3-difluoroazetidin-1-carbonyl)-6-nitrophenyl)amino)cyclohexyl) isoquinolin-4-formamide] | 10 to 50 nM
O=C(N[C@H]1CCCC[C@H]1Nc1c(C(=O)N2CCCCC2)cc(Br)cc1[N+](=O)[O-])c1cncc2ccccc12 [Example 2, N-((1S,2R)-2-((4-bromo-2-nitro-6-(piperidin-1-carbonyl)phenyl)amino)cyclohexyl) isoquinolin-4-formamide] | < 10 nM
O=C(N[C@H]1CCCC[C@H]1Nc1c(C(=O)N2CCCC2)cc(Br)cc1[N+](=O)[O-])c1cncc2ccccc12 [Example 3, N-((1S,2R)-2-((4-bromo-2-nitro-6-(pyrrolidin-1-carbonyl)phenyl)amino)cyclohexyl) isoquinolin-4-formamide] | < 10 nM
O=C(c1cccnc1)N1CCC[C@@H](Nc2c(C(=O)N3CCCCC3)cc(Br)cc2[N+](=O)[O-])C1 [Example 4, (R)-(5-bromo-2-((1-nicotinoylpiperidin-3-yl)amino)-3-nitrophenyl)(piperidin-1-yl)methanone] | 50 to 100 nM
O=C(c1cncc(Br)c1)N1CCC[C@@H](Nc2c(C(=O)N3CCCCC3)cc(Br)cc2[N+](=O)[O-])C1 [Example 5, (R)-(5-bromo-2-((1-(5-bromonicotinoyl)piperidin-3-yl)amino)-3-nitrophenyl)(piperidin-1-yl)methanone] | < 10 nM
O=C(c1cc(Br)cc([N+](=O)[O-])c1N[C@@H]1CCCN(C(=O)c2cncc3ccccc23)C1)N1CCC(F)(F)CC1 [Example 6, (R)-(5-bromo-2-((1-(isoquinolin-4-carbonyl)piperidin-3-yl)amino)-3-nitrophenyl)(4,4-difluoropiperidin-1-yl)methanone] | < 10 nM
CC1(C)C2CN(C(=O)c3cc(Br)cc([N+](=O)[O-])c3N[C@@H]3CCCN(C(=O)c4cncc5ccccc45)C3)CC21 (stereo partly drawn) [Example 7] | 10 to 50 nM
O=C(c1cc(Br)cc([N+](=O)[O-])c1N[C@@H]1CCCN(C(=O)c2cncc3cc(Cl)ccc23)C1)N1CCCCC1 [Example 8, (R)-(5-bromo-2-((1-(7-chloroisoquinolin-4-carbonyl)piperidin-3-yl)amino)-3-nitrophenyl)(piperidin-1-yl)methanone] | < 10 nM
O=C(N[C@H]1CCCC[C@H]1Nc1c(C(=O)N2CCCCC2)cc(Br)cc1C(F)(F)F)c1cncc2ccccc12 [Example 9, N-((1S,2R)-2-((4-Bromo-2-(piperidin-1-carbonyl)-6-(trifluoromethyl)phenyl)amino)cyclohexyl) isoquinolin-4-formamide] | < 10 nM
O=C(c1cc(Br)cc([N+](=O)[O-])c1N[C@@H]1CCCN(C(=O)c2cncc3ccccc23)C1)N1CCNCC1 [Example 10] | 10 to 50 nM
O=C(c1cc(Br)cc([N+](=O)[O-])c1N[C@@H]1CCCN(C(=O)c2cnnc3ccccc23)C1)N1CCCCC1 [Example 11, (R)-(5-bromo-2-((1-(4-cinnolin-carbonyl)piperidin-3-yl)amino)-3-nitrophenyl)(piperidin-1-yl)methanone] | 50 to 100 nM
O=C(c1cc(Br)cc([N+](=O)[O-])c1N[C@@H]1CCN(C(=O)c2cncc3ccccc23)C1)N1CCCCC1 [Example 12, (R)-(5-bromo-2-((1-(isoquinolin-4-carbonyl)pyrrolidin-3-yl)amino)-3-nitrophenyl)(piperidin-1-yl)methanone] | 10 to 50 nM
O=C(c1cc(Br)cc([N+](=O)[O-])c1N[C@@H]1CCCN(C(=O)c2cncc3ccccc23)C1)N1CCCCC1 [Example 13, (R)-(5-bromo-2-((1-(isoquinolin-4-carbonyl)piperidin-3-yl)amino)-3-nitrophenyl)(piperidin-1-yl)methanone] | < 10 nM
O=C(N[C@H]1CCCC[C@H]1Nc1c(C(=O)N2CCCCC2)cc(Br)cc1[N+](=O)[O-])c1cncc(Br)c1 [Example 14] | 10 to 50 nM

Structure (SMILES) | IC50
O=C(c1cc(Br)cc([N+](=O)[O-])c1N[C@@H]1CCCN(C(=O)c2cncc3ccccc23)C1)N1CC2CC2C1 (stereo partly drawn) [Example 15, ((3R)-3-((2-(3-azabicyclo[3.1.0]hexan-3-carbonyl)-4-bromo-6-nitrophenyl)amino)piperidin-1-yl)(isoquinolin-4-yl)methanone] | 10 to 50 nM
O=C(N[C@H]1CCCC[C@H]1Nc1c(C(=O)N2CCC(F)(F)CC2)cc(Br)cc1[N+](=O)[O-])c1cc(=O)[nH]c2ccccc12 [Example 16, N-((1S,2R)-2-((4-bromo-2-(4,4-difluoropiperidin-1-carbonyl)-6-nitrophenyl)amino)cyclohexyl)-2-oxo-1,2-dihydroquinolin-4-formamide] | 10 to 50 nM
C[C@@H]1CN(C(=O)c2cc(Br)cc([N+](=O)[O-])c2N[C@@H]2CCCN(C(=O)c3cncc4[nH]ccc34)C2)C[C@H](C)O1 [Example 17] | 10 to 50 nM
C[C@@H]1CN(C(=O)c2cc(Br)cc([N+](=O)[O-])c2N[C@@H]2CCCN(C(=O)C3CCNC(=O)C3)C2)C[C@H](C)O1 (stereo partly drawn) [Example 18, 4-((R)-3-((4-bromo-2-((2R,6S)-2,6-dimethylmorpholin-4-carbonyl)-6-nitrophenyl)amino)piperidin-1-carbonyl)piperidin-2-one] | 100 to 200 nM
CNc1cncc(C(=O)N2CCC[C@@H](Nc3c(C(=O)N4CCC(N5CCOCC5)CC4)cc(Br)cc3[N+](=O)[O-])C2)c1 [Example 19, (R)-(5-bromo-2-((1-(5-(methylamino)nicotinoyl)piperidin-3-yl)amino)-3-nitrophenyl)(4-morpholinopiperidin-1-yl)methanone] | 10 to 50 nM
CNc1cncc(C(=O)N2C[C@H](Nc3c(C(=O)N4C[C@@H](C)O[C@@H](C)C4)cc(Br)cc3[N+](=O)[O-])C3(CC3)C2)c1 [Example 20] | 10 to 50 nM
CNc1cncc(C(=O)N2C[C@H](Nc3c(C(=O)N4C[C@@H](C)N[C@@H](C)C4)cc(Br)cc3[N+](=O)[O-])C3(CC3)C2)c1 [Example 21] | 10 to 50 nM
CNc1cncc(C(=O)N2CCC[C@@H](Nc3c(C(=O)N4CCN(CC(F)(F)F)CC4)cc(Br)cc3[N+](=O)[O-])C2)c1 [Example 22] | 10 to 50 nM
CNc1cncc(C(=O)N2CCC[C@@H](Nc3c(C(=O)N4CCN(C(=O)C(F)(F)F)CC4)cc(Br)cc3[N+](=O)[O-])C2)c1 [Example 23, (R)-1-(4-(5-bromo-2-((1-(5-(methylamino)nicotinoyl)piperidin-3-yl)amino)-3-nitrobenzoyl)piperazin-1-yl)-2,2,2-trifluoroethan-1-one] | 10 to 50 nM
O=C(c1cc[nH]c(=O)c1)N1CCC[C@@H](Nc2c(C(=O)N3CCC(F)(F)CC3)cc(Br)cc2[N+](=O)[O-])C1 [Example 24, (R)-4-(3-((4-bromo-2-(4,4-difluoropiperidin-1-carbonyl)-6-nitrophenyl)amino)piperidin-1-carbonyl)pyridin-2 (1H)-one] | 100 to 200 nM
O=C1CN(C(=O)c2cc(Br)cc([N+](=O)[O-])c2N[C@@H]2CCCC[C@@H]2NC(=O)c2cncc3cc(Cl)ccc23)CCN1 [Example 25, N-((1S,2R)-2-((4-bromo-2-nitro-6-(3-oxopiperazin-1-carbonyl)phenyl)amino)cyclohexyl)-7-chloroisoquinolin-4-formamide] | 10 to 50 nM
Cc1cc(C(=O)N2CCC[C@@H](Nc3c(C(=O)N4CCOCC4)cc(Br)cc3[N+](=O)[O-])C2)cc(=O)[nH]1 [Example 26, (R)-4-(3-((4-bromo-2-(morpholin-4-carbonyl)-6-nitrophenyl)amino)piperidin-1-carbonyl)-6-methylpyridin-2 (1H)-one] | 10 to 50 nM
Cc1cc(C(=O)N2CCC[C@@H](Nc3c(C(=O)N4C[C@@H](C)O[C@@H](C)C4)cc(Br)cc3[N+](=O)[O-])C2)cc(=O)[nH]1 [Example 27, 4-((R)-3-((4-bromo-2-((2S,6R)-2,6-dimethylmorpholin-4-carbonyl)-6-nitrophenyl)amino)piperidin-1-carbonyl)-6-methylpyridin-2 (1H)-one] | 10 to 50 nM
O=C(c1cc(Br)cc([N+](=O)[O-])c1N[C@@H]1CCCN(C(=O)c2cncc3[nH]ccc23)C1)N1CCC(F)(F)CC1 [Example 28] | 10 to 50 nM
CNc1cncc(C(=O)N2CCC[C@@H](Nc3c(C(=O)N4CCN(C)CC4)cc(Br)cc3[N+](=O)[O-])C2)c1 [Example 29, (R)-(5-bromo-2-((1-(5-(methylamino)nicotinoyl)piperidin-3-yl)amino)-3-nitrophenyl)(4-methylpiperazin-1-yl)methanone] | 10 to 50 nM
CNc1cncc(C(=O)N2CC(Nc3c(C(=O)N4CCCCC4)cc(Br)cc3[N+](=O)[O-])C(F)(F)C2)c1 (stereo not drawn) [Example 32, (5-Bromo-2-((4,4-difluoro-1-(5-(methylamino)nicotinoyl)pyrrolidin-3-yl)amino)-3-nitrophenyl)(piperidin-1-yl)methanone] | 10 to 50 nM
C[C@H]1CCCN(C(=O)c2cc(Br)cc([N+](=O)[O-])c2N[C@@H]2CCCN(C(=O)[C@H]3CC(=O)N[C@@H](C)C3)C2)C1 [Example 33, (4R,6S)-4-((R)-3-((4-bromo-2-((S)-3-methylpiperidin-1-carbonyl)-6-nitrophenyl)amino)piperidin-1-carbonyl)-6-methylpiperidin-2-one] | 10 to 50 nM
CNc1cncc(C(=O)N2CCC[C@@H](Nc3c(C(=O)N4CCO[C@H](CF)C4)cc(Br)cc3[N+](=O)[O-])C2)c1 [Example 37] | 10 to 50 nM
